In the supplement of paper PMC13380429:

Columns and labels:
Settings in all cases: 72 h
[1] = system: Vero E6; test: drug sensitivity score (DSS) for viability; higher = more toxic; extreme values may be limits of the assay
[2] = system: Caco-2; test: as above
[3] = system: HepG2; test: as above
[4] = system: Calu-3; test: as above
[5] = system: U2OS; test: as above
[6] = system: Vero E6; test: cell viability relative to DMSO; higher = less toxic
[7] = system: Caco-2; test: as above
[8] = system: HepG2; test: as above
[9] = system: Calu-3; test: as above
[10] = system: U2OS; test: as above
[11] = system: Vero E6; test: relative viability EC50 (midpoint between 100% and the lowest measured viability); higher = less toxic
[12] = system: Caco-2; test: as above
[13] = system: HepG2; test: as above
[14] = system: Calu-3; test: as above
[15] = system: U2OS; test: as above

Row | SMILES | drug sensitivity score [1] | drug sensitivity score [2] | drug sensitivity score [3] | drug sensitivity score [4] | drug sensitivity score [5] | cell viability ([6]; 1 nM) | cell viability ([6]; 10 nM) | cell viability ([6]; 100 nM) | cell viability ([6]; 1000 nM) | cell viability ([6]; 10000 nM) | cell viability ([7]; 1 nM) | cell viability ([7]; 10 nM) | cell viability ([7]; 100 nM) | cell viability ([7]; 1000 nM) | cell viability ([7]; 10000 nM) | cell viability ([8]; 1 nM) | cell viability ([8]; 10 nM) | cell viability ([8]; 100 nM) | cell viability ([8]; 1000 nM) | cell viability ([8]; 10000 nM) | cell viability ([9]; 1 nM) | cell viability ([9]; 10 nM) | cell viability ([9]; 100 nM) | cell viability ([9]; 1000 nM) | cell viability ([9]; 10000 nM) | cell viability ([10]; 1 nM) | cell viability ([10]; 10 nM) | cell viability ([10]; 100 nM) | cell viability ([10]; 1000 nM) | cell viability ([10]; 10000 nM) | relative viability EC50 [11] | relative viability EC50 [12] | relative viability EC50 [13] | relative viability EC50 [14] | relative viability EC50 [15]
1 | NC(=O)c1ncn([C@@H]2O[C@H](CO)[C@@H](O)[C@H]2O)n1 [ribavirin] | 0 | 0.2 | 0 | 0.3 | 0 | 101% | 101% | 98.5% | 104% | 104% | 109% | 97.6% | 108% | 113% | 82.9% | 95.7% | 104% | 99.8% | 121% | 86.7% | 104% | 108% | 111% | 88.6% | 92.9% | 92% | 93.8% | 99.5% | 95.9% | 113% | > 10 µM | > 10 µM | > 10 µM | > 10 µM | > 10 µM
2 | N[C@H](Cc1ccccc1)C(=O)O [D-phenylalanine] | 0 | 0 | 0 | 0 | 0 | 108% | 100% | 104% | 101% | 96.1% | 94.6% | 101% | 90.8% | 95.8% | 93.8% | 99.7% | 109% | 90.4% | 105% | 100% | 98.3% | 95.2% | 111% | 102% | 105% | 95.6% | 101% | 96.5% | 95.2% | 99.8% | > 10 µM | > 10 µM | > 10 µM | > 10 µM | > 10 µM
3 | CC(O)(P(=O)(O)O)P(=O)(O)O [etidronic-acid] | 0 | 0 | 0 | 0 | 0 | 92.7% | 91.1% | 96.1% | 90.1% | 95.8% | 103% | 91.5% | 103% | 98.2% | 104% | 92.3% | 105% | 105% | 100% | 94.6% | 93.2% | 103% | 109% | 92.1% | 105% | 102% | 97% | 98.6% | 103% | 102% | > 10 µM | > 10 µM | > 10 µM | > 10 µM | > 10 µM
4 | CNC(=O)c1cccc(-c2ccc3c(N4CCOC[C@@H]4C)nc(N4CCOC[C@@H]4C)nc3n2)c1 [AZD2014] | 7.5 | 13.3 | 13 | 16.1 | 8.5 | 94.7% | 99.4% | 85.4% | 70.1% | 37.2% | 106% | 98.5% | 83.8% | 38.8% | 30.6% | 94% | 95.4% | 86.4% | 39% | 22% | 89.4% | 87.5% | 74.3% | 27.7% | 22.9% | 95.8% | 94.9% | 96.7% | 66.7% | 19.4% | 0.762 µM | 0.235 µM | 0.348 µM | 0.154 µM | 1.2 µM
5 | CCN(C(C)=O)c1cccc(-c2ccnc3c(C#N)cnn23)c1 [ZALEPLON] | 0 | 0 | 0 | 0 | 0 | 97.5% | 99.2% | 99.3% | 101% | 95% | 96.6% | 102% | 100% | 104% | 96.4% | 90.5% | 95.6% | 91% | 105% | 89.3% | 93.9% | 96.7% | 96.7% | 86.1% | 90.7% | 105% | 104% | 102% | 103% | 96% | > 10 µM | > 10 µM | > 10 µM | > 10 µM | > 10 µM
6 | Nc1ccc(S(N)(=O)=O)cc1 [sulfanilamide] | 0 | 0 | 0 | 0 | 0 | 99.8% | 94.2% | 83.1% | 105% | 117% | 85.8% | 59.8% | 84.2% | 81.1% | 113% | 96.8% | 104% | 95.1% | 109% | 103% | 95% | 97.2% | 106% | 90.7% | 102% | 98.8% | 97% | 106% | 100% | 103% | > 10 µM | > 10 µM | > 10 µM | > 10 µM | > 10 µM
7 | CC(C)(C)CCN1C[C@@H]2[C@@H](CNC(=O)c3cc(Cl)cc(Cl)c3)[C@@H]2C1 [ML218] | 0 | 0 | 0 | 0 | 0 | 101% | 101% | 103% | 100% | 91.8% | 104% | 97.4% | 97.4% | 92.8% | 88.6% | 95.2% | 108% | 96.3% | 96.9% | 92.7% | 108% | 109% | 104% | 99.6% | 90.7% | 99.7% | 97.9% | 96.8% | 102% | 93.1% | > 10 µM | > 10 µM | > 10 µM | > 10 µM | > 10 µM
